Like-named read-outs stand apart in the source and are kept apart here.
Tests used:
[1] = 0.5 mg/kg bw oral, within 96 h, cited from earlier work
[2] = In vitro incubation of OTA with liver S9 and UDP-glucuronic acid (glucuronide formation); format: in vitro ADME, rat
Procedure: (§1) Liver S9 fractions from rats (Sprague-Dawley, male, 97 donors, 20 mg/mL) and humans (mixed genders, 50 donors, 20 mg/mL) were obtained from XenoTech (Kansas City, USA). S9 fractions from Goettingen® minipigs and rabbits were prepared in-house based on a modified protocol from Hubbard et al. (1985). Rabbit liver (Blue Vienna x German Giant, female) was obtained from ImmonuGlobe (Himmelstadt, Germany), whereas minipig liver (Goettingen® minipig, male, 42.4 kg bw) was obtained from the University Goettingen, Department of Animal Science.
(§2) For analysis of OTA-derived glucuronides, liver S9 fractions (4 mg/mL) of rats, rabbit, minipigs and humans were incubated with OTA (0.1 mM), uridine-diphosphate-glucuronic acid (5 mM) and magnesium chloride (5 mM) in 100 mM phosphate-buffered saline (pH 7.4) in a total volume of 300 µL at 37 °C for two hours. Control incubations were carried out in the absence of uridine-diphosphate-glucuronic acid. […] Ten microliters (10 µL) of each sample was injected into the LC–MS system and analyzed using the method described below. […]
(§3) The API 2000/Q-Trap mass spectrometer was operated with a Turbo Ion Spray source in negative ion mode with a voltage of −4000 V. Spectral data were recorded with N2 as the heater gas at 450 °C and as the collision gas (CAD = −2) in multiple reaction monitoring mode (MRM).

[3] = as above; format: in vitro ADME; details: OTA 0.1 mM, UDPGA 5 mM, 37 °C
Procedure: as §1, §2, §3

[4] = as above; format: in vitro ADME, human
Procedure: as §1, §2, §3

For `C[C@@H]1Cc2c(Cl)cc(C(=O)N[C@@H](Cc3ccccc3)C(=O)O)c(O)c2C(=O)O1` [OTA, Ochratoxin A], the “Fraction of orally administered dose excreted in urine” value ([1]; female rats) is listed as 5.2% and the “Fraction of orally administered dose excreted in urine” value ([1]; male rats) is listed as 2.1%.
For `CC1Cc2c(Cl)cc(C(=O)NC(Cc3ccccc3)C(=O)OC3OC(C(=O)O)C(O)C(O)C3O)c(O)c2C(=O)O1` (centres unmarked) [OTA-Glucuronide], the “Formation of OTA glucuronide (m/z transitions 578/402 and 578/358)” value (shortened to “Formation of OTA glucuronide”) ([2]; rat liver S9 4 mg/mL, OTA 0.1 mM, UDPGA 5 mM, 37 °C) was “detected”, the “OTA-glucuronide formed as compared to rabbit and minipig samples (signal intensities)” value ([2]; rat liver S9 vs rabbit and minipig liver S9) was 5–10 times and the “Formation of OTA glucuronide” value ([3]; minipig liver S9 4 mg/mL) was “detected”. The “Formation of OTA glucuronide” value ([3]; rabbit liver S9 4 mg/mL) was “detected”, the “Formation of OTA glucuronide” value ([4]; human liver S9 4 mg/mL, OTA 0.1 mM, UDPGA 5 mM, 37 °C) was “detected” and the “OTA-glucuronide formed as compared to rabbit and minipig samples (signal intensities)” value ([4]; human liver S9 vs rabbit and minipig liver S9) was 5–10 times.

Source: article PMC8402547, “In Vitro and In Vivo Analysis of Ochratoxin A-Derived Glucuronides and Mercapturic Acids as Biomarkers of Exposure” (Toxins, 2021)
